Measurements taken from publication PMC6139898, “Engineering xylose metabolism in thraustochytrid T18” (Biotechnology for Biofuels, 2018).

Experiments:
XylA = molecular target: T1, XylA (Escherichia coli, UniProt P00944); assay: HPLC-RI substrate conversion, overnight; assay type: biochemical; details: 30 °C, 50 mM HEPES pH 7.4, 10 mM MgCl2, 5 mM MgATP
T1 construct: full length, N-terminal His tag, expressed in E. coli BL21(DE3)pLysS
T1 sequence (P00944 1-440): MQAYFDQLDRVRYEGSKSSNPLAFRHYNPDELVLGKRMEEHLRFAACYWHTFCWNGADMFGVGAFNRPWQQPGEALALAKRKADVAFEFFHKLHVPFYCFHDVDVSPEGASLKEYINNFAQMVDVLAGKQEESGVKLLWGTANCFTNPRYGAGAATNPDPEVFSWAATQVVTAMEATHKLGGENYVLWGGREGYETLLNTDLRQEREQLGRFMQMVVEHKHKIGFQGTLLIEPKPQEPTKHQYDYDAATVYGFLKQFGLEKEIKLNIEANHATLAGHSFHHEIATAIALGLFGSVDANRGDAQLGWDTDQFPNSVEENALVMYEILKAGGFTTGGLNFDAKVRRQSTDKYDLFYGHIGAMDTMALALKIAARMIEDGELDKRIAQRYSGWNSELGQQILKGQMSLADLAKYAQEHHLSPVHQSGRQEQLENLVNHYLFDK

[1] = molecular target: T2, T18 xylose isomerase (XI) (Thraustochytrium sp. ONC-T18, UniProt A0A385ZBK6); assay: HPLC-RI substrate conversion, overnight; assay type: biochemical; details: 50 °C, 50 mM HEPES pH 7.4, 10 mM MgCl2, 5 mM MgATP; partly pure fraction
T2 construct: gene xylA
T2 sequence (A0A385ZBK6 1-439): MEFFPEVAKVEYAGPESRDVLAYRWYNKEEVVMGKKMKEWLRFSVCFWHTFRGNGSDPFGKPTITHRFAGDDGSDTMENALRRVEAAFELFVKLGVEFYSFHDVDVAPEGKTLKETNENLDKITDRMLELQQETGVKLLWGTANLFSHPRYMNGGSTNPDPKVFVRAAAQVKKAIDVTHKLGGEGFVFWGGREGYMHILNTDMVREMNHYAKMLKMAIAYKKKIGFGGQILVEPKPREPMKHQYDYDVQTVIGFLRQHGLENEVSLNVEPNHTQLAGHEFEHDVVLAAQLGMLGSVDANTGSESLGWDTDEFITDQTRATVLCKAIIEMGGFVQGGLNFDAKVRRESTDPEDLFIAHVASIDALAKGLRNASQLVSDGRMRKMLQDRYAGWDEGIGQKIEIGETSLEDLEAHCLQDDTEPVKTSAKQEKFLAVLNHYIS

Row | SMILES | HPLC-RI substrate conversion, overnight (XylA) | HPLC-RI substrate conversion, overnight [1]
1 | OC1OC[C@@H](O)[C@H](O)[C@H]1O (stereo partly shown) [xylose] | Both XylA and T18 xylose isomerase showed increased activity on both sugars | Both XylA and T18 xylose isomerase showed increased activity on both sugars
2 | O=C(CO)[C@@H](O)[C@H](O)CO [xylulose] | Both XylA and T18 xylose isomerase showed increased activity on both sugars | Both XylA and T18 xylose isomerase showed increased activity on both sugars
